From patent publication US20250320397A1, “NON-PFAS REFRIGERANTS AND METHODS OF COOLING ELECTRONICS” (Honeywell International Inc., priority 2024, published 2025)

Legend:
[1] = Excerpt: This is experimentally determined where a liquid spill is simulated by pouring the liquid of interest into a watch glass. The flammability of, primarily, a single component or a blend is characterized throughout the evaporation of the puddle to dryness. […] The watch glass test is a conservative test because no external heat is applied to the watch glass, which is chilled by the evaporating solvent. The cold watch glass acts as a condenser for the vapors of higher boiling point blend components. In the case where a flammable component is high boiling, its concentration increases throughout the evaporation time, rendering the mixture more flammable than it would be under temperature-controlled blend segregation experiments.
This was experimentally determined where a liquid spill was simulated by pouring HFO-1336pyy(Z) into a watch glass. The flammability was characterized throughout the evaporation of the puddle to dryness.

[2] = Boiling point determination (Example 2); format: physicochemical; details: for Bp: Table 3, approximate physical properties; for BP: Table 5
Description: (§1) The boiling point (“BP”) of HFO-1336pyy and HFO-1336eyc were determined and the results are reported below in Table 5. The dielectric constant (“Dk”) of HFO-1336pyy and HFO-1336eyc(E) were measured, whereas the Dk of HFO*1336eyc (Z) was calculated using the Kirkwood model as described in Harvey, A. H. and Lemmon, E. W., International Journal of Thermophysics, Vol. 26, No. 1, 2005. The measured dielectric property were determined using the Agilent 85070 Dielectric Probe. All measurements were made at ambient pressure and room temperature (approximately 23° C.). Prior to making measurements, the system was calibrated from 1 GHz to 20 GHz with an open circuit, a short circuit, and DI water (@22.4° C.) standard. The accuracy of the probe is given as: Dielectric constant, er′=er′+/−0.05|er*| with er″=er″+/−0.05|er*| and (loss=er″/er′).

[3] = Dielectric constant measured with Agilent 85070 Dielectric Probe (Example 2); format: physicochemical; details: ambient pressure, room temperature (approximately 23° C.); for Dielectric Constant (Dk): Table 3; for Dk: Table 5, probe calibrated 1 GHz to 20 GHz
Description: “Dielectric Constant” means the dielectric constant as measured in accordance with ASTM D150-11 statically and at room temperature.
as §1

Structure (SMILES): F/C=C(\F)C(F)(F)C(F)F [Compound 3, (Z)-1,2,3,3,4,4-hexafluorobut-1-ene]
- flammability (flame on open flame passed across liquid surface) [1]: no flame is observed
- Bp [2]: 40.4 °C
- BP [2]: 40.4 °C

Structure (SMILES): F/C(=C(\F)C(F)F)C(F)F [Compound 1, (Z)-1,1,2,3,4,4-hexafluorobut-2-ene]
- Bp [2]: 58.2 °C
- BP [2]: 58.2 °C
- Dielectric Constant (Dk) [3]: 6.72
- Dk [3]: 6.72

Structure (SMILES): F/C(=C(/F)C(F)F)C(F)F [Compound 2, (E)-1,1,2,3,4,4-hexafluorobut-2-ene]
- flammability (flame on open flame passed across liquid surface) [1]: no flame was observed
- Bp [2]: 51.7 °C
- BP [2]: 51.7 °C
- Dielectric Constant (Dk) [3]: 4.34
- Dk [3]: 4.34

Structure (SMILES): F/C=C(/F)C(F)(F)C(F)F [Compound 4, (E)-1,2,3,3,4,4-hexafluorobut-1-ene]
- flammability (flame on open flame passed across liquid surface) [1]: no flame was observed
- Bp [2]: 45.3 °C
- BP [2]: 45.3 °C
- Dielectric Constant (Dk) [3]: 5.09
- Dk [3]: 5.09
